# Results from the supplement of paper PMC10307832.
# Columns and labels:
# Assay in all cases: relative viability (nuclei count vs DMSO), 5 days (fraction); higher = more cells survive
# NCI-H1648 = test system: NCI-H1648
# Outline: (§1)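 Nuclei were stained with Hoechst during a one-step fixation (final 0.05% Triton X-100, 1% formaldehyde, 1 ug/ml Hoechst) carried out 5 days after dosing, then counted on 4× images. The cells, lung cancer lines in 1536-well plates, had been dosed by pin tool the day after seeding with one drug alone or a fixed anchor-drug dose plus five library-drug doses (not always all listed) in √10 steps. Relative viability is the nuclei count in treated wells divided by that in vehicle wells, and each value is the median of duplicate plates.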
# UMC-11 = test system: UMC-11
# Outline: as §1
# EBC-1 = test system: EBC-1
# Outline: as §1
# NCI-H1703 = test system: NCI-H1703
# Outline: as §1
# Calu-6 = test system: Calu-6
# Outline: as §1
# NCI-H1299 = test system: NCI-H1299
# Outline: as §1
# IA-LM = test system: IA-LM
# Outline: as §1
# A549 = test system: A549
# Outline: as §1
SMILES,relative viability (NCI-H1648; first compound 0.04 µM),relative viability (NCI-H1648; first compound 0.1265 µM),relative viability (NCI-H1648; first compound 0.4 µM),relative viability (NCI-H1648; first compound 4 µM),relative viability (UMC-11; first compound 0.04 µM),relative viability (UMC-11; first compound 0.1265 µM),relative viability (UMC-11; first compound 0.4 µM),relative viability (UMC-11; first compound 4 µM),relative viability (NCI-H1648; first compound 0.01 µM),relative viability (NCI-H1648; first compound 0.03162 µM),relative viability (NCI-H1648; first compound 0.3162 µM),relative viability (UMC-11; first compound 0.01 µM),relative viability (UMC-11; first compound 0.03162 µM),relative viability (UMC-11; first compound 0.3162 µM),also measured
C[C@@H]1CN(CC(=O)Nc2ccc3c(c2)Cc2cccc(-c4cc(=O)cc(N5CCOCC5)o4)c2S3)C[C@H](C)O1 + CC(=O)Nc1cccc(-n2c(=O)n(C3CC3)c(=O)c3c(Nc4ccc(I)cc4F)n(C)c(=O)c(C)c32)c1 [Trametinib] (partner 0.02 µM),0.484,0.435,0.474,0.527,0.732,0.757,0.868,0.65,–,–,–,–,–,–,–
C[C@@H]1CN(CC(=O)Nc2ccc3c(c2)Cc2cccc(-c4cc(=O)cc(N5CCOCC5)o4)c2S3)C[C@H](C)O1 + CC(=O)c1c(C)c2cnc(Nc3ccc(N4CCNCC4)cn3)nc2n(C2CCCC2)c1=O [Palbociclib] (partner 0.5 µM),0.265,0.322,0.373,0.26,0.33,0.332,0.321,0.338,–,–,–,–,–,–,–
C[C@@H]1CN(CC(=O)Nc2ccc3c(c2)Cc2cccc(-c4cc(=O)cc(N5CCOCC5)o4)c2S3)C[C@H](C)O1 + CC(C)C[C@H](NC(=O)[C@H](Cc1ccccc1)NC(=O)c1cnccn1)B(O)O [Bortezomib] (partner 0.002 µM),–,–,–,–,0.778,0.693,0.919,0.543,–,–,–,–,–,–,relative viability (EBC-1; first compound 0.04 µM): 0.636; relative viability (EBC-1; first compound 0.1265 µM): 0.535; relative viability (EBC-1; first compound 0.4 µM): 0.472; relative viability (EBC-1; first compound 4 µM): 0.335; relative viability (NCI-H1703; first compound 0.04 µM): 0.469; relative viability (NCI-H1703; first compound 0.1265 µM): 0.365; relative viability (NCI-H1703; first compound 0.4 µM): 0.241; relative viability (NCI-H1703; first compound 4 µM): 0.254; relative viability (Calu-6; first compound 0.04 µM): 1.07; relative viability (Calu-6; first compound 0.1265 µM): 1.03; relative viability (Calu-6; first compound 0.4 µM): 1.08; relative viability (Calu-6; first compound 4 µM): 0.66; relative viability (NCI-H1299; first compound 0.04 µM): 1.03; relative viability (NCI-H1299; first compound 0.1265 µM): 1.03; relative viability (NCI-H1299; first compound 0.4 µM): 1.01; relative viability (NCI-H1299; first compound 4 µM): 0.926; relative viability (IA-LM; first compound 0.04 µM): 0.669; relative viability (IA-LM; first compound 0.1265 µM): 0.773; relative viability (IA-LM; first compound 0.4 µM): 0.832; relative viability (IA-LM; first compound 4 µM): 0.375
C[C@@H]1CN(CC(=O)Nc2ccc3c(c2)Cc2cccc(-c4cc(=O)cc(N5CCOCC5)o4)c2S3)C[C@H](C)O1 + NC(=O)Nc1cc(-c2cccc(F)c2)sc1C(=O)N[C@H]1CCCNC1 [AZD7762] (partner 0.2 µM),0.519,0.574,0.961,0.604,–,–,–,–,–,–,–,–,–,–,relative viability (NCI-H1703; first compound 0.04 µM): 0.137; relative viability (NCI-H1703; first compound 0.1265 µM): 0.11; relative viability (NCI-H1703; first compound 0.4 µM): 0.141; relative viability (NCI-H1703; first compound 4 µM): 0.117
C[C@@H]1CN(CC(=O)Nc2ccc3c(c2)Cc2cccc(-c4cc(=O)cc(N5CCOCC5)o4)c2S3)C[C@H](C)O1 + Nc1nc2[nH]cc(CCc3ccc(C(=O)N[C@@H](CCC(=O)O)C(=O)O)cc3)c2c(=O)[nH]1 [Pemetrexed] (partner 0.2 µM),0.588,0.801,0.747,0.64,0.757,0.764,0.767,0.674,–,–,–,–,–,–,–
C[C@@H]1CN(CC(=O)Nc2ccc3c(c2)Cc2cccc(-c4cc(=O)cc(N5CCOCC5)o4)c2S3)C[C@H](C)O1 + Nc1ncn([C@H]2C[C@H](O)[C@@H](CO)O2)c(=O)n1 [Decitabine] (partner 2 µM),0.41,0.515,0.591,0.434,0.477,0.62,0.728,0.513,–,–,–,–,–,–,relative viability (A549; first compound 0.04 µM): 0.24; relative viability (A549; first compound 0.1265 µM): 0.227; relative viability (A549; first compound 0.4 µM): 0.254; relative viability (A549; first compound 4 µM): 0.31
C[C@@H]1CN(CC(=O)Nc2ccc3c(c2)Cc2cccc(-c4cc(=O)cc(N5CCOCC5)o4)c2S3)C[C@H](C)O1 + O=C(CCCCCCC(=O)Nc1ccccc1)NO [Vorinostat] (partner 1 µM),0.505,0.605,0.644,0.528,0.378,0.433,0.441,0.366,–,–,–,–,–,–,relative viability (IA-LM; first compound 0.04 µM): 0.819; relative viability (IA-LM; first compound 0.1265 µM): 0.933; relative viability (IA-LM; first compound 0.4 µM): 1.09; relative viability (IA-LM; first compound 4 µM): 0.897
CC(C)Oc1cc(Nc2nc(N[C@@H](C)c3ccc(F)cn3)ncc2Cl)n[nH]1 [AZ23] + CC(=O)Nc1cccc(-n2c(=O)n(C3CC3)c(=O)c3c(Nc4ccc(I)cc4F)n(C)c(=O)c(C)c32)c1 [Trametinib] (partner 0.02 µM),–,–,–,–,–,–,–,–,0.374,0.427,0.314,0.591,0.872,0.729,–
CC(C)Oc1cc(Nc2nc(N[C@@H](C)c3ccc(F)cn3)ncc2Cl)n[nH]1 [AZ23] + CC(=O)c1c(C)c2cnc(Nc3ccc(N4CCNCC4)cn3)nc2n(C2CCCC2)c1=O [Palbociclib] (partner 0.5 µM),–,–,–,–,–,–,–,–,0.227,0.208,0.23,0.341,0.338,0.353,–
CC(C)Oc1cc(Nc2nc(N[C@@H](C)c3ccc(F)cn3)ncc2Cl)n[nH]1 [AZ23] + NC(=O)Nc1cc(-c2cccc(F)c2)sc1C(=O)N[C@H]1CCCNC1 [AZD7762] (partner 0.2 µM),–,–,–,–,–,–,–,–,0.659,0.518,0.762,–,–,–,relative viability (NCI-H1703; first compound 0.03162 µM): 0.126; relative viability (NCI-H1703; first compound 0.3162 µM): 0.154
CC(C)Oc1cc(Nc2nc(N[C@@H](C)c3ccc(F)cn3)ncc2Cl)n[nH]1 [AZ23] + Nc1nc2[nH]cc(CCc3ccc(C(=O)N[C@@H](CCC(=O)O)C(=O)O)cc3)c2c(=O)[nH]1 [Pemetrexed] (partner 0.2 µM),–,–,–,–,–,–,–,–,0.706,0.632,0.807,0.802,0.814,0.791,–
CC(C)Oc1cc(Nc2nc(N[C@@H](C)c3ccc(F)cn3)ncc2Cl)n[nH]1 [AZ23] + Nc1ncn([C@H]2C[C@H](O)[C@@H](CO)O2)c(=O)n1 [Decitabine] (partner 2 µM),–,–,–,–,–,–,–,–,0.546,0.534,0.509,0.562,0.747,0.587,relative viability (A549; first compound 0.01 µM): 0.3; relative viability (A549; first compound 0.03162 µM): 0.325; relative viability (A549; first compound 0.3162 µM): 0.281
CC(C)Oc1cc(Nc2nc(N[C@@H](C)c3ccc(F)cn3)ncc2Cl)n[nH]1 [AZ23] + O=C(CCCCCCC(=O)Nc1ccccc1)NO [Vorinostat] (partner 1 µM),–,–,–,–,–,–,–,–,0.373,0.567,0.316,0.281,0.384,0.357,relative viability (IA-LM; first compound 0.01 µM): 0.895; relative viability (IA-LM; first compound 0.03162 µM): 1.05; relative viability (IA-LM; first compound 0.3162 µM): 1.06
COc1cc(N2CCC(C(N)=O)CC2)ccc1Nc1nc(N)c(Cl)c(Nc2ccccc2S(=O)(=O)C(C)C)n1 [HG-5-88-01] + CC(=O)Nc1cccc(-n2c(=O)n(C3CC3)c(=O)c3c(Nc4ccc(I)cc4F)n(C)c(=O)c(C)c32)c1 [Trametinib] (partner 0.02 µM),0.485,0.459,0.417,0.316,0.532,0.861,0.727,0.531,–,–,–,–,–,–,relative viability (NCI-H1648; first compound 1.265 µM): 0.352; relative viability (UMC-11; first compound 1.265 µM): 0.707
